From patent US7763585B2, “Methods for inhibiting tumor cell proliferation” (priority 2003, dated 2010)
Like-named read-outs stand apart in the source and are kept apart here.

What was measured:
[1] = target: T1, Stat3:Stat3 (Mus musculus, UniProt P42227); assay: EMSA, disruption of Stat3:Stat3 DNA-binding activity in vitro (hSIE probe); type: biochemical; details: for Level of DNA-binding activity of Stat3 (EMSA): EGF-stimulated fibroblast nuclear extracts, 30 min preincubation, FIG. 1A; for IC50: nuclear extracts pre-incubated 30 min at room temperature, read-out: IC50 for disruption of STAT DNA-binding activity in vitro, Stat3:Stat3
T1 construct: endogenous in cells; host or cells: EGF-stimulated fibroblasts (nuclear extract)
Experimental: (§1) FIGS. 1A-D are photographs showing EMSA analyses of DNA-binding activities and effects of platinum complexes. Nuclear extracts containing activated Stat1, Stat3 and Stat5 are treated with the indicated concentrations of platinum complex ISSCPA-1, ISSCPA-3, ISSCPA-7, or PtCl4 for 30 min at room temperature prior to incubation with radiolabeled oligonucleotide probes. […] Positions of complexes of DNA with STAT, E2F1 or NFκB (p65, p50) in gel are labeled. Control lanes represent nuclear extracts that are not pre-incubated with platinum complexes.
(§2) Nuclear extracts were prepared from cell lines and used for EMSA as previously described (Turkson et al., 1998; Yu et al., 1995; Garcia et al., 1997). In some cases, cells were pre-treated with platinum complexes for the indicated times prior to harvesting. Where cells were stimulated with EGF (6 ng/ml), duration of treatment was 15 min. Nuclear extracts were pre-incubated with compounds for 30 min at room temperature prior to incubation with radiolabeled probe. The ^32P-radiolabeled oligonucleotide probes used are hSIE (high affinity sis-inducible element, m67 variant, 5′-[…]-3′) (SEQ ID NO:1) that binds both Stat1 and Stat3 (Garcia et al., 1997; Wagner et al., 1990), MGFe (mammary gland factor element from the bovine β-casein gene promoter, 5′-AGATTTCTAGGAATTCAA-3′) (SEQ ID NO:2) that binds Stat1 and Stat5 (Gouilleux et al., 1995; Seidel et al., 1995), the NF-κB binding oligo (5′-[…]-3′) (SEQ ID NO:3), and the oligonucleotide sequence from the DHFR promoter that binds E2F1.
(§3) Platinum compounds were evaluated for inhibitory activity against STAT DNA-binding in vitro.

[2] = target: T2, Stat1:Stat3 (Mus musculus, UniProt P42225+P42227); assay: EMSA, disruption of Stat1:Stat3 DNA-binding activity in vitro (hSIE probe); type: biochemical
T2 construct: endogenous in cells; host or cells: EGF-stimulated fibroblasts (nuclear extract)
Experimental: as §1, §2, §3

[3] = test system: Stat5; assay: EMSA, Stat5 DNA-binding activity in vitro (MGFe probe); type: biochemical, mouse; details: FIG. 1B
Experimental: as §1, §2, §3

[4] = test system: Stat3-dependent luciferase reporter (pLucTKS3); assay: Stat3-dependent firefly luciferase reporter in NIH3T3/v-Src/pLucTKS3; type: cell-based, mouse; details: NIH3T3/v-Src/pLucTKS3, FIG. 4
Experimental: (§4) FIGS. 4A-B show inhibition of Stat3-mediated gene expression in intact cells by platinum complexes. v-Src-transformed mouse fibroblasts that stably express Stat3-dependent (NIH3T3/v-Src/pLucTKS3) and Stat3-independent (NIH3T3/v-Src/pRLSRE) luciferase reporters were treated with platinum complexes for the indicated times. Cytosolic extracts were then prepared from cells for Stat3-dependent firefly luciferase activity (FIG. 4A) and Stat3-independent renilla luciferase measurements (FIG. 4B). Values are the means and S.D. of five independent assays. […]
(§5) Cytosolic lysates preparation from fibroblasts for luciferase assays or from baculovirus-infected Sf-9 insect cells have been previously described (Turkson et al., 1998; Turkson et al., 2001; Turkson et al., 1999; Zhang et al., 2000). Luciferase assays were performed as outlined in the supplier's (Promega) manual and measured with a luminometer. […]

[5] = test system: Stat3-independent luciferase reporter (pRLSRE); assay: Stat3-independent renilla luciferase reporter in NIH3T3/v-Src/pRLSRE; type: cell-based, mouse; details: FIG. 4
Experimental: as §4, §5

[6] = test system: NIH3T3v-Src; assay: Cell proliferation of v-Src-transformed fibroblasts; type: cell-based, mouse; details: FIG. 6
Experimental: (§6) FIGS. 6A and 6B show the effects of platinum complexes on cell proliferation and viability. […] Values are the mean and S.D. of 3-4 independent determinations.
(§7) Proliferating cells were counted by phase-contrast microscopy for viable cells (using trypan blue exclusion. TUNEL staining was carried according to supplier's instructions to detect apoptotic cells. Cells (NIH3T3 or NIH3T3/v-Src) were first treated with or without compounds 24-48 h prior to staining.
(§8) The effects of platinum complexes on cell proliferation measured by [^3H]-thymidine incorporation were investigated.

[7] = test system: normal mouse fibroblasts; assay: Cell proliferation ([3H]-thymidine incorporation) of normal mouse fibroblasts; type: cell-based; details: FIG. 6; reduction in growth rate but not growth inhibitory
Experimental: as §6, §7, §8

[8] = test system: human tumor cells that do not contain constitutively-active Stat3; assay: Cell proliferation ([3H]-thymidine incorporation) of human tumor cells without constitutively-active Stat3; type: cell-based; details: FIG. 6; reduction in growth rate but not growth inhibitory
Text: as §6, §8

[9] = test system: normal NIH3T3 fibroblasts; assay: TUNEL staining for apoptosis, normal fibroblasts; type: cell-based, mouse; details: 48 h treatment, FIG. 7
Experimental: FIG. 7 is a photograph showing induction of apoptosis by platinum complexes. Normal NIH3T3 fibroblasts and their v-Src-transformed counterparts were treated with platinum complexes for 48 h and analyzed for evidence of DNA damage using TUNEL staining kit.
as §7
Studies have established a critical role for constitutive Stat3 signaling in the survival of transformed and tumor cells (Catlett-Falcone et al., 1999a; Grandis et al., 2000a; Epling-Burnette et al., 2001; Bowman et al., 2000b; Grandis et al., 2000b; Horiguchi et al., 2002). Effects of the subject platinum compounds on viability and survival of malignant cells were evaluated. To determine whether inhibition of persistently-active Stat3 by the subject compounds results in apoptosis, Src-transformed and normal mouse fibroblasts were treated with the subject platinum compounds and subjected to TUNEL staining for evidence of apoptosis.

T1 sequence (P42227 2-770 limits assumed): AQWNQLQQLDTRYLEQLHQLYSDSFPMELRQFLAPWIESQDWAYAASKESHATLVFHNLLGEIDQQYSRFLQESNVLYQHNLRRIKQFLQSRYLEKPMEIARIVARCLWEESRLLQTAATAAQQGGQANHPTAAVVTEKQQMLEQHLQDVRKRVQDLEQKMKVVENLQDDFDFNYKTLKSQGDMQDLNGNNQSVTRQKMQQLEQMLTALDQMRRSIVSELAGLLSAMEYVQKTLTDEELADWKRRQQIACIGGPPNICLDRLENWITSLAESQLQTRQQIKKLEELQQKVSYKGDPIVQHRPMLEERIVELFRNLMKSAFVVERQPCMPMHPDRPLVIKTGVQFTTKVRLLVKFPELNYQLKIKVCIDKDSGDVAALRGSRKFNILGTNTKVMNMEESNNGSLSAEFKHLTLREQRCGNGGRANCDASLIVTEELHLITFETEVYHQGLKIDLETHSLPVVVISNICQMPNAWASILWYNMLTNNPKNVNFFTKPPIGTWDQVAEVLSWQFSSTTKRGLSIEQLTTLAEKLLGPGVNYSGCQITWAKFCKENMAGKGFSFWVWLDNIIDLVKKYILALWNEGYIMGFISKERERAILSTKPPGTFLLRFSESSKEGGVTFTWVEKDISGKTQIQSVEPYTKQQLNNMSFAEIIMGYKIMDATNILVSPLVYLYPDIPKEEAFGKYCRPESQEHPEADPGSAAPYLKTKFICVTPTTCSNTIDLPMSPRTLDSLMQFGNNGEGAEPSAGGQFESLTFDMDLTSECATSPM
T2 sequence (P42227 2-770 limits assumed): as above
T2 sequence (P42225 2-749 limits assumed): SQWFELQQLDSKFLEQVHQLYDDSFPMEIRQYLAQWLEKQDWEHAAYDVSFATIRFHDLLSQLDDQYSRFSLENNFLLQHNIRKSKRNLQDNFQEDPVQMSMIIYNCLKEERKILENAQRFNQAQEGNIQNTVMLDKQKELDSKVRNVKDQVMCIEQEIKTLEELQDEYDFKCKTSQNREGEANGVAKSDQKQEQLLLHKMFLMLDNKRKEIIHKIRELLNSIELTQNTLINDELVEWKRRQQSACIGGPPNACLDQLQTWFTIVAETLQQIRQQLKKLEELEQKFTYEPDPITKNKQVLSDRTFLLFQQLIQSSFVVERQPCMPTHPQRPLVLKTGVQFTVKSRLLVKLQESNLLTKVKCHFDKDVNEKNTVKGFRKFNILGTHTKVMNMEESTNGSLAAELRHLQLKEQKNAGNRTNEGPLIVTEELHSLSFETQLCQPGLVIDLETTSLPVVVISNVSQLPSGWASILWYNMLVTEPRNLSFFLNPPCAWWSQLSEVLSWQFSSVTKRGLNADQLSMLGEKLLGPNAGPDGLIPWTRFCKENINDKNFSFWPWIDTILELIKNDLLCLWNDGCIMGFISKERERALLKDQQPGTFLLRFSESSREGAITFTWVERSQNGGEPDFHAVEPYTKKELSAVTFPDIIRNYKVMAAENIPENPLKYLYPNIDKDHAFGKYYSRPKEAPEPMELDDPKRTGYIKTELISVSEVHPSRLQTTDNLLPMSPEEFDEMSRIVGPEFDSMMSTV

Structure (SMILES) | Level of DNA-binding activity of Stat3 (EMSA) [1] | IC50 [1] [µM] | IC50 [2] [µM] | Inhibitory effect on Stat5 DNA-binding activity (EMSA) [3] | Stat3-dependent induction of luciferase reporter [4] | Induction of Stat3-independent luciferase activity [5] | Growth of Src-transformed mouse fibroblasts ([3H]-thymidine incorporation) [6] | Growth of normal mouse fibroblasts ([3H]-thymidine incorporation) [7] | Growth of human tumor cells that do not contain constitutively-active Stat3 [8] | Apoptosis (TUNEL staining) in normal fibroblasts [9] | IC50 ([2]; nuclear extracts pre-incubated 30 min at room temperature, hSIE probe, read-out: IC50 for disruption of STAT DNA-binding activity in vitro, Stat1:Stat3) [µM]
O=[N+]([O-])[Pt]1([Cl])([Cl])([Cl])[NH]CC[NH]1 [ISS CPA-1] | dose-dependent reduction | 5 | 9.3 | much reduced inhibitory effect | significantly suppress | little or no effect | strongly inhibited | marginal effect | marginal effect | marginal degree of apoptosis | –
[NH2][Pt]([NH2])([Cl])([Cl])([Cl])[N+](=O)[O-] [ISS CPA-7] | dose-dependent reduction | 1.5 | – | much reduced inhibitory effect | significantly suppress | little or no effect | strongly inhibited | marginal effect | marginal effect | marginal degree of apoptosis | 3.5
